Row | melting point [°C] | Structure (SMILES)
1 | 98 to 100 | COc1cccc(CNC(=O)n2ccnc2)c1
2 | 226 to 228 | CS(=O)(=O)c1ccc(C(N)=O)cc1
3 | 123 to 125 | Cc1nc2nc(C(F)(F)F)nn2c(C)c1CCC(=O)O
4 | 251 to 253 | O=c1ccc(-n2ccnc2)n[nH]1
5 | 173 to 175 | Nc1nc(-c2ccc3c(c2)CCO3)cs1
6 | 136 to 138 | COc1ccc(C=O)cc1OCC(N)=O
7 | 127 to 129 | COc1cc(C2(C(=O)O)CC2)ccc1C
8 | 131 to 133 | N#Cc1ccc(N2CCN(c3ccccc3)CC2)nc1
9 | 111 to 113 | O=C(O)CCOc1ccccc1Br
10 | 119 to 121 | NS(=O)(=O)c1cc(Br)cnc1Cl
11 | 184 to 186 | O=C(O)c1occc1CN1CCOCC1
12 | 105 to 107 | O=C(Nc1ccccc1I)C(F)(F)F
13 | 249 to 251 | S=C1Nc2ccccc2C2CC=NN12 (configuration not stated)
14 | 264 to 266 | NC(=O)c1ccc(OCC(=O)O)cc1
15 | 195 to 197 | O=C(O)c1cccc(OCc2cccnc2)c1
16 | 89 to 91 | CC(CC#N)Sc1ccccc1NC(=O)CCl (configuration not stated)
17 | 148 to 150 | Nc1nc2ccccc2n1-c1ccccc1
18 | 228 to 230 | CS(=O)(=O)c1ccc(Cl)c(S(N)(=O)=O)c1
19 | 47 to 49 | Nc1cccc(C#Cc2ccccc2)c1
20 | 119 to 121 | Cc1cccc(-c2noc(S)n2)c1
21 | 137 to 139 | O=C(Nc1ccc(Cl)cn1)C1CCNCC1
22 | 146 to 148 | CCCS(=O)(=O)N1CCC(C(=O)O)CC1
23 | 59 to 61 | Cc1cc(-n2nccc2N)ncn1

Row | melting point [°C] | Structure (SMILES)
24 | 72 to 74 | COC(=O)N1CCc2ccccc21
25 | 213 to 215 | CN(C)CCn1nnnc1S
26 | 230 to 232 | O=C(O)c1cc(S(=O)(=O)N2CCCCC2)ccc1Br
27 | 143 to 145 | O=C(O)C(Oc1ccccc1Br)c1ccccc1 (configuration not stated)
28 | 62 to 64 | ClCc1ccc(Oc2cccc(Cl)c2Cl)cc1
29 | 262 to 264 | O=C1CCSc2ccc(C(=O)O)cc2N1
30 | 245 to 247 | Cn1cc(S(=O)(=O)N2CCOCC2)cc1C(=O)O
31 | 62 to 64 | CCCCN1Cc2ccc(N)cc2C1
32 | 217 to 219 | Cc1ccc(-c2cn[nH]c2)cc1
33 | 204 to 206 | Oc1ccc(-c2cnc3ccccc3n2)cc1
34 | 257 to 259 | O=C(O)c1cc2c(=O)n3ccccc3nc2n1Cc1ccccc1
35 | 134 to 136 | CC(C)(C)OC(=O)N1CCc2ccc(O)cc2C1
36 | 152 to 154 | Cc1cc(Br)cn2c(C=O)cnc12
37 | 214 to 216 | CC1(c2ccccc2F)NC(=O)NC1=O (configuration not stated)
38 | 157 to 159 | Cc1cccc(-n2nnc(C(=O)O)c2C)c1
39 | 178 to 180 | O=C(CCl)c1ccc2c(c1)CCCN2C(=O)c1ccccc1
40 | 78 to 80 | COc1ccccc1C(N)c1nccn1C (configuration not stated)
41 | 210 to 212 | Cc1nn2c(=O)cc(CCl)nc2s1
42 | 155 to 157 | O=C(NC1CCN(C(=O)CCl)CC1)c1ccccc1
43 | 146 to 148 | Nc1ncn(-c2ccccc2)n1
44 | 60 to 69 | O=C(O)CCOc1cccc(Br)c1
45 | 137 to 139 | NNC(=O)CCN1CCCC1
46 | 88 to 90 | Cc1cncc(-n2ccnc2)c1

Row | melting point [°C] | Structure (SMILES)
47 | 108 to 110 | O=C1C(Br)CCCN1c1ccccc1Cl (configuration not stated)
48 | 172 to 174 | Nc1nc(-c2ccncc2)cs1
49 | 212 to 214 | NNC(=O)c1ccc(Cl)c(S(N)(=O)=O)c1
50 | 117 to 121 | Cc1cc(OCC(=O)O)ccc1C(C)C
51 | 228 to 230 | O=C(O)c1cccc(NC(=O)C2CCCCC2)c1
52 | 74 to 76 | Cc1cc(C)n(CCO)n1
53 | 124 to 126 | NNC(=O)NC1CCCC1
54 | 103 to 105 | Cc1ccccc1COc1ccccc1C(=O)O
55 | 183 to 185 | NC(=O)c1cc(Br)ccc1N
56 | 271 to 273 | Cc1cc(N2C(=O)c3ccccc3C2=O)ccc1C(=O)O
57 | 87 to 91 | N#Cc1ccc(Cl)c(N)c1
58 | 106 to 108 | CNC(=O)c1cccnc1Cl
59 | 97 to 99 | Nc1ccnn1Cc1ccc(Br)cc1
60 | 215 to 217 | NC(=NO)c1ccc2c(c1)CCO2
61 | 163 to 165 | c1ccc(OCc2nc3ccccc3[nH]2)cc1
62 | 258 to 260 | O=c1[nH]c2ccccc2nc1NO
63 | 43 to 45 | COCc1nc(Cl)cc(Cl)n1
64 | 69 to 71 | CCOC(=O)c1ccc(NCC2CC2)cc1
65 | 154 to 156 | OC1CCc2cn[nH]c2C1 (configuration not stated)
66 | 109 to 111 | O=C(O)CNC(=O)C1CCCC1
67 | 79 to 81 | CNc1cc(C(=O)OC)ccc1N
68 | 195 to 197 | NC(=S)c1ccc(NC(=O)CC2CCCC2)cc1
69 | 182 to 184 | Cc1cc(C(=O)O)cc(C)c1OCc1cccnc1

Row | Structure (SMILES) | melting point [°C]
70 | CSc1ccc(C(=O)CCl)cc1 | 72 to 74
71 | O=c1c2ccccc2nc(Cl)n1-c1ccccc1 | 127 to 129
72 | c1cnc2[nH]cc(C3CCNCC3)c2c1 | 159 to 161

Reference: a melting point compilation (Tetko et al.)
